Several values for one entry are separate records, joined by “and”; a condition that tells them apart may be missing. Identical values can stand only once. Activity calls are given as the source filed them. The rule behind the calls is not given here.
Assays:
[1] = biological target: Beta-1 adrenergic receptor (Meleagris gallopavo) (UniProt P07700); experiment: Inhibition of [3H]dihydroalprenolol binding ([3H]-DHA) to beta-1-adrenoceptor from turkey erythrocyte membranes; Not active
Rattus norvegicus [2] = experiment: Saluretic activity was evaluated for Na+ by flame photometry at 30 mg/kg perorally; type: functional; conditions: route oral
[3] = Ratio of saluretic activity for Na+ over saluretic activity of K+ in rats after peroral administration of 8 mg/kg of compound; type: functional; conditions: route oral
[4] = Ratio of saluretic activity for Na+ over saluretic activity of K+ in rats after peroral administration of 30 mg/kg of compound; type: functional; conditions: route oral
Rattus norvegicus [5] = experiment: Diuretic activity given as urinary output of 30 mg/kg perorally administered compound in rats; type: functional, Urine; conditions: route oral
Rattus norvegicus [6] = experiment: Diuretic activity given as urinary output of 8 mg/kg perorally administered compound in rats; type: functional, Urine; conditions: route oral
Rattus norvegicus [7] = experiment: Saluretic activity was evaluated for Na+ by flame photometry at 15 mg/kg perorally; type: functional; conditions: route oral
Rattus norvegicus [8] = experiment: Saluretic activity was evaluated for K+ by flame photometry at 8 mg/kg perorally; type: functional; conditions: route oral
Rattus norvegicus [9] = experiment: Saluretic activity was evaluated for K+ by flame photometry at 15 mg/kg perorally; type: functional; conditions: route oral
[10] = Ratio of saluretic activity for Na+ over saluretic activity of K+ in rats after peroral administration of 15 mg/kg of compound; type: functional; conditions: route oral
Rattus norvegicus [11] = experiment: Saluretic activity was evaluated for K+ by flame photometry at 30 mg/kg perorally; type: functional; conditions: route oral
Rattus norvegicus [12] = experiment: Diuretic activity given as urinary output of 15 mg/kg perorally administered compound in rats; type: functional, Urine; conditions: route oral
Rattus norvegicus [13] = experiment: Saluretic activity was evaluated for Na+ by flame photometry at 8 mg/kg perorally; type: functional; conditions: route oral
[14] = biological target: Beta-1 adrenergic receptor (Homo sapiens, UniProt P08588)
Sequence of Beta-1 adrenergic receptor (P08588 whole entry): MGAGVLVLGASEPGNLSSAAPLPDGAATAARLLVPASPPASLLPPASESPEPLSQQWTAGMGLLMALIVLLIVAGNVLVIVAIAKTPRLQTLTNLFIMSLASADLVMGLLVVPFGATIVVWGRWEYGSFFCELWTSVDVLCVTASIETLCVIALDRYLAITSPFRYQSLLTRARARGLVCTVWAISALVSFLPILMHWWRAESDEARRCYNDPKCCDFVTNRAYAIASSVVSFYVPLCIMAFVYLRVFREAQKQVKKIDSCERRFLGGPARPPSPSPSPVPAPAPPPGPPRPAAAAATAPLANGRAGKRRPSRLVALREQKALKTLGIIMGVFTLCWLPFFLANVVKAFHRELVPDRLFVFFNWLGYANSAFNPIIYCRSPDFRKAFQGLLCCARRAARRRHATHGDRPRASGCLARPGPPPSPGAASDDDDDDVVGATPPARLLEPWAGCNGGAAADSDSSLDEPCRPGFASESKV

[15] = biological target: T1, Adrenergic receptor beta (Rattus norvegicus) (UniProt P18090+P10608+P26255)
Description: beta-adrenoceptor blocking activity of the intravenously administered compound was evaluated by inhibition of isiprenaline-induced tachycardia in rats; NA indicates not active

[16] = biological target: T1, Adrenergic receptor beta (Rattus norvegicus); remark: listed apart in the source
Description: beta-adrenoceptor blocking activity of the perorally administered compound was evaluated by inhibition of isiprenaline-induced tachycardia in rats; NA indicates not active

Rattus norvegicus [17] = experiment: Diuretic activity given as urinary output at 15 mg/kg perorally; type: functional, Urine; conditions: route oral
Rattus norvegicus [18] = experiment: Saluretic activity was evaluated for K+ by flame photometry at 50 mg/kg perorally; type: functional; conditions: route oral
Rattus norvegicus [19] = experiment: Diuretic activity given as urinary output of 50 mg/kg perorally administered compound in rats; type: functional, Urine; conditions: route oral
[20] = Ratio of saluretic activity for Na+ over saluretic activity of K+ in rats after peroral administration of 50 mg/kg of compound; type: functional; conditions: route oral
Rattus norvegicus [21] = experiment: Saluretic activity was evaluated for Na+ by flame photometry at 50 mg/kg perorally; type: functional; conditions: route oral

Sequence of Beta-1 adrenergic receptor (Meleagris gallopavo) (P07700 whole entry, looked up): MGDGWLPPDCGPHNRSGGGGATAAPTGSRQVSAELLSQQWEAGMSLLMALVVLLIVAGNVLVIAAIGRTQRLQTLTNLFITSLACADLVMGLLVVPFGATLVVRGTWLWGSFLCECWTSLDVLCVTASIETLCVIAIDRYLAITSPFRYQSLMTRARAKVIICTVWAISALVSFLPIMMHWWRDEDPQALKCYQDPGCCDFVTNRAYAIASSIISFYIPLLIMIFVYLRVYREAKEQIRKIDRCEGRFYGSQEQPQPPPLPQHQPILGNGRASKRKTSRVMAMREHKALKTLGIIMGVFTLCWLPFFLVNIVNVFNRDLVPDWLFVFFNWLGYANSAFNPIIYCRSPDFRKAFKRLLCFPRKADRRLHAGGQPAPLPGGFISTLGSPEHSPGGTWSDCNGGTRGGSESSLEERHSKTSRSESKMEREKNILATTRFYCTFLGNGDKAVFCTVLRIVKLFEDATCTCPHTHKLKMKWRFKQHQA

NS(=O)(=O)c1cc(C(=O)N2CCN(CC(O)COc3cccc4ccccc34)CC2)ccc1Cl (stereo not given)
Ki [1]: Not Active

NS(=O)(=O)c1cc(C(=O)NCCNCC(O)COc2cccc3c2CCC(=O)N3)ccc1Cl (stereo not given)
Activity (Rattus norvegicus [2]): 2.9 m equiv kg-1 | Ratio [3]: 1.4 | Ratio [4]: 1.6 | Urinary output (Rattus norvegicus [5]): 3.3 mL | Urinary output (Rattus norvegicus [6]): 2.8 mL | Activity (Rattus norvegicus [7]): 2 m equiv kg-1 | Activity (Rattus norvegicus [8]): 1.8 m equiv kg-1 | Activity (Rattus norvegicus [9]): 1.5 m equiv kg-1 | Ratio [10]: 1.3 | Activity (Rattus norvegicus [11]): 1.8 m equiv kg-1 | Urinary output (Rattus norvegicus [12]): 2.6 mL | Activity (Rattus norvegicus [13]): 2.6 m equiv kg-1

NS(=O)(=O)c1cc(C(=O)N2CCN(CC(O)COc3cccc4c3CCC(=O)N4)CC2)ccc1Cl (stereo not given)
Ki [14]: Not Active

NS(=O)(=O)c1cc2c(cc1Cl)NCNS2(=O)=O [HYDROCHLOROTHIAZIDE]
Activity (Rattus norvegicus [2]): 5.1 m equiv kg-1 | Ratio [3]: 1.7 | Ratio [4]: 2.2 | Urinary output (Rattus norvegicus [5]): 7.3 mL | Urinary output (Rattus norvegicus [6]): 4 mL | Activity (Rattus norvegicus [7]): 3.9 m equiv kg-1 | Activity (Rattus norvegicus [8]): 1.8 m equiv kg-1 | Activity (Rattus norvegicus [9]): 1.9 m equiv kg-1 | Ratio [10]: 2 | Activity (Rattus norvegicus [11]): 2.3 m equiv kg-1 | Urinary output (Rattus norvegicus [12]): 5.9 mL | Activity (Rattus norvegicus [13]): 3.1 m equiv kg-1

NS(=O)(=O)c1cc(N2CCN(CC(O)COc3cccc4c3CCC(=O)N4)CC2)ccc1Cl (stereo not given)
Ki [14]: Not Active

NS(=O)(=O)c1cc(NCCNCC(O)COc2cccc3c2CCC(=O)N3)ccc1Cl (stereo not given)
Ki [14]: Not Active

NS(=O)(=O)c1cc(N2CCN(CC(O)COc3cccc4ccccc34)CC2)ccc1Cl (stereo not given)
Activity (Rattus norvegicus [2]): 3.2 m equiv kg-1 | Ratio [3]: 1.8 | Ratio [4]: 1.4 | Urinary output (Rattus norvegicus [5]): 2.9 mL | Urinary output (Rattus norvegicus [6]): 1.9 mL | Activity (Rattus norvegicus [7]): 1.7 m equiv kg-1 | Activity (Rattus norvegicus [8]): 1.3 m equiv kg-1 | Activity (Rattus norvegicus [9]): 1.4 m equiv kg-1 | Ratio [10]: 1.2 | Activity (Rattus norvegicus [11]): 2 m equiv kg-1 | Urinary output (Rattus norvegicus [12]): 2.2 mL | Activity (Rattus norvegicus [13]): 2.4 m equiv kg-1

NS(=O)(=O)c1cc(C(=O)NCCNCC(O)COc2cccc3ccccc23)ccc1Cl (stereo not given)
Activity (Rattus norvegicus [2]): 1.8 m equiv kg-1 | Ratio [3]: 2.1 | Ratio [4]: 1.2 | Urinary output (Rattus norvegicus [5]): 2.9 mL | Urinary output (Rattus norvegicus [6]): 5.2 mL | Activity (Rattus norvegicus [7]): 3.1 m equiv kg-1 | Activity (Rattus norvegicus [8]): 1.2 m equiv kg-1 | Activity (Rattus norvegicus [9]): 1.7 m equiv kg-1 | Ratio [10]: 1.8 | Activity (Rattus norvegicus [11]): 1.4 m equiv kg-1 | Urinary output (Rattus norvegicus [12]): 4.8 mL | Activity (Rattus norvegicus [13]): 2.5 m equiv kg-1

NS(=O)(=O)c1cc(C(=O)N2CCN(CC(O)COc3cccc4c3SCC(=O)N4)CC2)ccc1Cl (stereo not given)
Ki [14]: Not Active

NS(=O)(=O)c1cc(S(=O)(=O)NCCNCC(O)COc2cccc3c2CCC(=O)N3)ccc1Cl (stereo not given)
Activity (Rattus norvegicus [2]): 3.4 m equiv kg-1 | Ratio [3]: 2 | Ratio [4]: 2.3 | Urinary output (Rattus norvegicus [6]): 2.2 mL | Activity (Rattus norvegicus [7]): 2.3 m equiv kg-1 | Activity (Rattus norvegicus [8]): 0.9 m equiv kg-1 | Activity (Rattus norvegicus [9]): 1.2 m equiv kg-1 | Ratio [10]: 1.9 | Activity (Rattus norvegicus [11]): 1.5 m equiv kg-1 | Urinary output (Rattus norvegicus [12]; 15 mg/kg): 3.1 mL and 4.6 mL | Activity (Rattus norvegicus [13]): 1.8 m equiv kg-1

NS(=O)(=O)c1cc(NCCNCC(O)COc2cccc3ccccc23)ccc1Cl (stereo not given)
Activity (Rattus norvegicus [2]): 3.2 m equiv kg-1 | ED50 [15]: inactive | Ratio [3]: 1.7 | Ratio [4]: 1.2 | Urinary output (Rattus norvegicus [5]): 3.5 mL | Urinary output (Rattus norvegicus [6]): 2.4 mL | Activity (Rattus norvegicus [7]): 3.1 m equiv kg-1 | Activity (Rattus norvegicus [8]): 1.6 m equiv kg-1 | Activity (Rattus norvegicus [9]): 2 m equiv kg-1 | Ratio [10]: 1.5 | Activity (Rattus norvegicus [11]): 2.6 m equiv kg-1 | Urinary output (Rattus norvegicus [12]): 3.2 mL | Activity (Rattus norvegicus [13]): 2.8 m equiv kg-1

NS(=O)(=O)c1cc(S(=O)(=O)N2CCN(CC(O)COc3cccc4ccccc34)CC2)ccc1Cl (stereo not given)
Ki [14]: Not Active

NS(=O)(=O)c1cc(N2CCN(CC(O)COc3cccc4c3SCC(=O)N4)CC2)ccc1Cl (stereo not given)
Activity (Rattus norvegicus [2]): 3 m equiv kg-1 | ED50 [15]: inactive | Ratio [3]: 1.3 | Ratio [4]: 1.5 | Urinary output (Rattus norvegicus [5]): 3.5 mL | Urinary output (Rattus norvegicus [6]): 2.6 mL | Activity (Rattus norvegicus [7]): 2.9 m equiv kg-1 | Activity (Rattus norvegicus [8]): 1.7 m equiv kg-1 | Activity (Rattus norvegicus [9]): 1.8 m equiv kg-1 | Ratio [10]: 1.6 | Activity (Rattus norvegicus [11]): 2 m equiv kg-1 | Urinary output (Rattus norvegicus [12]): 3.1 mL | Activity (Rattus norvegicus [13]): 2.2 m equiv kg-1

NS(=O)(=O)c1cc(S(=O)(=O)N2CCN(CC(O)COc3cccc4c3CCC(=O)N4)CC2)ccc1Cl (stereo not given)
Ki [14]: Not Active

NS(=O)(=O)c1cc(S(=O)(=O)NCCNCC(O)COc2cccc3ccccc23)ccc1Cl (stereo not given)
ED50 [15]: inactive | ED50 [16]: inactive

NS(=O)(=O)c1cc(C(=O)NCCNCC(O)COc2cccc3c2SCC(=O)N3)ccc1Cl (stereo not given)
Activity (Rattus norvegicus [2]): 1.7 m equiv kg-1 | Ratio [3]: 1.1 | Ratio [4]: 1.5 | Urinary output (Rattus norvegicus [5]): 2 mL | Urinary output (Rattus norvegicus [17]): 1.7 mL | Urinary output (Rattus norvegicus [6]): 1.2 mL | Activity (Rattus norvegicus [7]): 1.1 m equiv kg-1 | Activity (Rattus norvegicus [8]): 0.8 m equiv kg-1 | Activity (Rattus norvegicus [18]): 1.5 m equiv kg-1 | Urinary output (Rattus norvegicus [19]): 4.3 mL | Ratio [20]: 2.1 | Activity (Rattus norvegicus [21]): 3.1 m equiv kg-1 | Activity (Rattus norvegicus [9]): 0.9 m equiv kg-1 | Ratio [10]: 1.2 | Activity (Rattus norvegicus [11]): 1.1 m equiv kg-1 | Activity (Rattus norvegicus [13]): 0.9 m equiv kg-1

NS(=O)(=O)c1cc(NCCNCC(O)COc2cccc3c2SCC(=O)N3)ccc1Cl (stereo not given)
Activity (Rattus norvegicus [2]): 2.2 m equiv kg-1 | Ratio [3]: 1.9 | Ratio [4]: 1.8 | Urinary output (Rattus norvegicus [5]): 3.1 mL | Urinary output (Rattus norvegicus [6]): 2.6 mL | Activity (Rattus norvegicus [7]): 2.6 m equiv kg-1 | Activity (Rattus norvegicus [8]): 1.1 m equiv kg-1 | Activity (Rattus norvegicus [9]): 1.3 m equiv kg-1 | Ratio [10]: 2 | Activity (Rattus norvegicus [11]): 1.2 m equiv kg-1 | Urinary output (Rattus norvegicus [12]): 3.3 mL | Activity (Rattus norvegicus [13]): 2.1 m equiv kg-1

NS(=O)(=O)c1cc(S(=O)(=O)NCCNCC(O)COc2cccc3c2SCC(=O)N3)ccc1Cl (stereo not given)
Activity (Rattus norvegicus [2]): 4.5 m equiv kg-1 | Ratio [3]: 2.5 | Ratio [4]: 1.9 | Urinary output (Rattus norvegicus [5]): 5.7 mL | Urinary output (Rattus norvegicus [6]): 3.5 mL | Activity (Rattus norvegicus [7]): 3 m equiv kg-1 | Activity (Rattus norvegicus [8]): 1.3 m equiv kg-1 | Activity (Rattus norvegicus [9]): 1.3 m equiv kg-1 | Ratio [10]: 2.3 | Activity (Rattus norvegicus [11]): 2.4 m equiv kg-1 | Urinary output (Rattus norvegicus [12]): 3.7 mL | Activity (Rattus norvegicus [13]): 3.2 m equiv kg-1

NS(=O)(=O)c1cc(S(=O)(=O)N2CCN(CC(O)COc3cccc4c3SCC(=O)N4)CC2)ccc1Cl (stereo not given)
Ki [14]: Not Active
